In general, IC50 refers to the concentration that gives 50% inhibition. Broadly, the half-life is the time needed for the level to fall by half in the phase considered.

These results are taken from ChEMBL document CHEMBL4725377, “The neuronal calcium ion channel activity of constrained analogues of MONIRO-1” (Bioorg Med Chem, 2020).

Structures are written as SMILES. Where only a bound is given, the exact number is not on record here.

The target of series [1] is T1, Voltage-dependent N-type calcium channel subunit alpha-1B (Homo sapiens, UniProt Q00975). Briefly: Inhibition of human N type calcium channel Cav2.2 endogenously expressed in SH-SY5Y cells assessed as calcium influx by FRIPR assay. In kind it is cell-based.
T1 sequence (Q00975 whole entry): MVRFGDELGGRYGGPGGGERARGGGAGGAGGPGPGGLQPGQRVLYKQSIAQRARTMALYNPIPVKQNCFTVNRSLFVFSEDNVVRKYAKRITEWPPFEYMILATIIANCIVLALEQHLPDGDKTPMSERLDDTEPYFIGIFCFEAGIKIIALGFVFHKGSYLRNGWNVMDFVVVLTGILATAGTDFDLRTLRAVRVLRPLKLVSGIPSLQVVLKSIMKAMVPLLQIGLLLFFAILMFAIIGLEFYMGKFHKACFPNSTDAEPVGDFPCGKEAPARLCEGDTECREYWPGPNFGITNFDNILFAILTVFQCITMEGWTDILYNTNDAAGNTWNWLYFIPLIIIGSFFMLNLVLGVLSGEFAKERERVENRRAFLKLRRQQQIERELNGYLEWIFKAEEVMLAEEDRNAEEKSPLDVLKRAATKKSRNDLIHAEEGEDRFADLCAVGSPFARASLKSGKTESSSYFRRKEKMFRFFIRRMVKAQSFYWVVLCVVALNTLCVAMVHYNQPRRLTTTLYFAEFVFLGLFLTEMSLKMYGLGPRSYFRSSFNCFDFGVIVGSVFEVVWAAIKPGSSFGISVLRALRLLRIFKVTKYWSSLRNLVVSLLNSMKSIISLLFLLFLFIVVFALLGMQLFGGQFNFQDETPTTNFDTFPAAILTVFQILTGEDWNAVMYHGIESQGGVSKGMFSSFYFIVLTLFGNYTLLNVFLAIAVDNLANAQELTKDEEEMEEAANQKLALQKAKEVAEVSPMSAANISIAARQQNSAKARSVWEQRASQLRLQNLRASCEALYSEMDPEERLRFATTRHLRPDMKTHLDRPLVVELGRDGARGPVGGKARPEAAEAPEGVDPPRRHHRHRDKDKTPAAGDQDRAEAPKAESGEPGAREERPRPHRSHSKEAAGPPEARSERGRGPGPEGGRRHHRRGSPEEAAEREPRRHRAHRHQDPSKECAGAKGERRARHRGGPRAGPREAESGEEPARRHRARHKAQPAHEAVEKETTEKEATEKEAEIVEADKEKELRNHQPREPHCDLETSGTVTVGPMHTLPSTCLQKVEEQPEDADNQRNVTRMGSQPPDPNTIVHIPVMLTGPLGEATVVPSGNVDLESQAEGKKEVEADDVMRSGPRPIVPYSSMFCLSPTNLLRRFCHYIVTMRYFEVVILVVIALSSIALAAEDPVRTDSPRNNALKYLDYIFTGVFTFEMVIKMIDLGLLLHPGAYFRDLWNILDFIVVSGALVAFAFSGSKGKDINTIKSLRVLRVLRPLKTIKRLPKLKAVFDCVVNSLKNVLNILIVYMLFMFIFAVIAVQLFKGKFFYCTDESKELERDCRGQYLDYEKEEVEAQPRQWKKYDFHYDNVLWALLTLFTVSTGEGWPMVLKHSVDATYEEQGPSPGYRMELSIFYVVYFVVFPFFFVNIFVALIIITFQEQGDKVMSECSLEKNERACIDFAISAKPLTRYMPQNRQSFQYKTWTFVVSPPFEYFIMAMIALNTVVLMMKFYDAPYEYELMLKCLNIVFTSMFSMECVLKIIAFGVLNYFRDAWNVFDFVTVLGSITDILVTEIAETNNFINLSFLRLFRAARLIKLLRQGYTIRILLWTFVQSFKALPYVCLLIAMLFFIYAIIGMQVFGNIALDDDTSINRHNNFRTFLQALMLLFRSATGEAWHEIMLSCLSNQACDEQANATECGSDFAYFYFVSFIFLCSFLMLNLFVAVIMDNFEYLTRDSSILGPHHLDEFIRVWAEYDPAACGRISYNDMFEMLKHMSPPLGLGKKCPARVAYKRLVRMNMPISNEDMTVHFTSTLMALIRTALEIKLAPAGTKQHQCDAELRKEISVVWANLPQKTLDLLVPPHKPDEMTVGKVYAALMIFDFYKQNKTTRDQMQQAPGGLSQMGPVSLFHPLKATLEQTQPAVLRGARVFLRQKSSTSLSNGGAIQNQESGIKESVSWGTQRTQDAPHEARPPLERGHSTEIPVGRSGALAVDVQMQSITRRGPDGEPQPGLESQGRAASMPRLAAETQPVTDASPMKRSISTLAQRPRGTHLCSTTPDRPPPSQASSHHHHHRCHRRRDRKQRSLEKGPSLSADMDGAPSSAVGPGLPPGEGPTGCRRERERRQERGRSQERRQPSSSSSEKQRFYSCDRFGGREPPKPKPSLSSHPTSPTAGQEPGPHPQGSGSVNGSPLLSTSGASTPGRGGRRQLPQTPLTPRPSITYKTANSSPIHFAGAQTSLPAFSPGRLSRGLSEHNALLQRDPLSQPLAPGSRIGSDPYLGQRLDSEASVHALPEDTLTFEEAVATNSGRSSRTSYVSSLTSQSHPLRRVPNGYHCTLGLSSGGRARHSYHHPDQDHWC
Series [2] deals with Voltage-dependent T-type calcium channel subunit alpha-1H (Homo sapiens, UniProt O95180). The series can be described thus: Inhibition of human T type calcium channel Cav3.2 expressed in HEK-293T cells assessed as calcium influx by FRIPR assay. It counts as cell-based.
Voltage-dependent T-type calcium channel subunit alpha-1H, sequence (O95180 whole entry): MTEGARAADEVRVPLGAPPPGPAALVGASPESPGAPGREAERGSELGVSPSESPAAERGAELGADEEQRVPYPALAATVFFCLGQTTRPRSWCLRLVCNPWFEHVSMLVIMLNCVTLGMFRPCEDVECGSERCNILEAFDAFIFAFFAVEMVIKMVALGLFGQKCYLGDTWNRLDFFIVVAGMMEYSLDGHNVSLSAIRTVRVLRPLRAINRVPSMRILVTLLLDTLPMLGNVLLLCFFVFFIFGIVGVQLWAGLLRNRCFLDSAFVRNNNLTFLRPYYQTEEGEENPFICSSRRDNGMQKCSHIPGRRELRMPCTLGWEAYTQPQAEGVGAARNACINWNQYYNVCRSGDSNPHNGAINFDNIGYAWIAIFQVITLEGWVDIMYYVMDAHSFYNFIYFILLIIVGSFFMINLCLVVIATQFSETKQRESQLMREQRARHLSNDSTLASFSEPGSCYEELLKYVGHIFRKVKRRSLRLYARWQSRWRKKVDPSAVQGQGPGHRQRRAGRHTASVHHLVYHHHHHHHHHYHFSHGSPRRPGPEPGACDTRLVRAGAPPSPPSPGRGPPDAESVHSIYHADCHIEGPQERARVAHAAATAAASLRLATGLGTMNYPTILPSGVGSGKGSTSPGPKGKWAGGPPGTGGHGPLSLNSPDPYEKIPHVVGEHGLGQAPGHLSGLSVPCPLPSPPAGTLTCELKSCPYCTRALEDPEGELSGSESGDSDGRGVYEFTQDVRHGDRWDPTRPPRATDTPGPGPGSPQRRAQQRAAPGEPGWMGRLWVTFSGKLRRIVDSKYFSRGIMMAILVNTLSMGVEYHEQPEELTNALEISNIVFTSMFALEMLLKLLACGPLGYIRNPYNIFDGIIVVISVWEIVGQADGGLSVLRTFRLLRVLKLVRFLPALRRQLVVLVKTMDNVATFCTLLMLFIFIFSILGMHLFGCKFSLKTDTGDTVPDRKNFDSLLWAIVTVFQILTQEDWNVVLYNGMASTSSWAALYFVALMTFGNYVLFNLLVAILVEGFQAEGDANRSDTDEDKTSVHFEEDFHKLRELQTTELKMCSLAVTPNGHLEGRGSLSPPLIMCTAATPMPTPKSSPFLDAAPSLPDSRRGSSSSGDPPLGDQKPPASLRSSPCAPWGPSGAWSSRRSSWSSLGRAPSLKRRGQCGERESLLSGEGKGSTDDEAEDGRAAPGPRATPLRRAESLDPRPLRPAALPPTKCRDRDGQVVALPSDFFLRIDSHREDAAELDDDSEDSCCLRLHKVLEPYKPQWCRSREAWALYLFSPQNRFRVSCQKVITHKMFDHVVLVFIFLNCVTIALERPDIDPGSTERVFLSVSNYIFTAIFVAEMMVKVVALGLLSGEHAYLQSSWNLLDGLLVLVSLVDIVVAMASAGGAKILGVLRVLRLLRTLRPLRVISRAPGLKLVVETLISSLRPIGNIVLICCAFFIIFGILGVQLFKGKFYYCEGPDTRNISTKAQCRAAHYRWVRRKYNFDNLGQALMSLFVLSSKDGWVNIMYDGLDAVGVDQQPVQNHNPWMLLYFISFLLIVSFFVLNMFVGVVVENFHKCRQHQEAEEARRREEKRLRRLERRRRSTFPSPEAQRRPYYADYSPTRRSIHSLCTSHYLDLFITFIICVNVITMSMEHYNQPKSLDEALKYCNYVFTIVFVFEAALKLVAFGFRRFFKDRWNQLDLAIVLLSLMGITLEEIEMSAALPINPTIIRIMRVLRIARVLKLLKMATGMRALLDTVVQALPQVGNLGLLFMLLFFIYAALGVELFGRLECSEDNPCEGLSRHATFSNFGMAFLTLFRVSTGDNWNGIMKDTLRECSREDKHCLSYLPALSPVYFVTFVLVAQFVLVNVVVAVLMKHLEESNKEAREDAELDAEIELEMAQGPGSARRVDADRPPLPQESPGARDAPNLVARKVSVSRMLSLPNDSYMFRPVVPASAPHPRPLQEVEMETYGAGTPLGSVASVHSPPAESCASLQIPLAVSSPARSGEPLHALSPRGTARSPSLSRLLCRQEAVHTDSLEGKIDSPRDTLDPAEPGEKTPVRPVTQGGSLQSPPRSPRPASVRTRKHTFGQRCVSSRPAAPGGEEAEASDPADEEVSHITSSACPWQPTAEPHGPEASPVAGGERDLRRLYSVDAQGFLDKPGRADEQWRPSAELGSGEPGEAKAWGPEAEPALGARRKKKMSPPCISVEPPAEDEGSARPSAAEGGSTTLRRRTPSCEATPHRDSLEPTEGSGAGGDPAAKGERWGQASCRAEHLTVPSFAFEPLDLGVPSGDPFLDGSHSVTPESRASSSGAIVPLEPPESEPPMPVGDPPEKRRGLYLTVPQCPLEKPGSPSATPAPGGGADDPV
Series [3] deals with T1, Voltage-dependent N-type calcium channel subunit alpha-1B. Briefly: Inhibition of human Cav2.2 expressed in HEK293 cells by whole cell patch clamp electrophysiology method. It counts as cell-based. For orientation: The patch-clamp technique gives a direct electrical read-out from membranes.
The nature of series [4]: Inhibition of human Cav3 expressed in HEK293 cells by whole cell patch clamp electrophysiology method. It counts as cell-based.
A short description of series [5]: Stability of the compound in Sprague-Dawley rat plasma assessed as half-life measured by RP-HPLC. In kind it is ADME, cell-free.

`O=C(c1ccc(OCCCN2CCCC2)cc1)N1c2ccccc2C=Cc2ccccc21`: the IC50 in series [1] is 107 µM; in series [2], 113 µM. Consider `Cc1cccc(C)c1Oc1ccccc1NC(=O)c1ccc(OCCCN(C)C)cc1`, for which the results for the IC50 in series [1] and in series [2] were 62 µM and 55 µM, respectively. As to `O=C(c1ccc(OCCCN2CCOCC2)cc1)N1c2ccccc2Oc2ccccc21`, the half-inhibitory concentration (IC50) in series [2] was determined as 133 µM. As for `O=C(c1ccc(OCCCN2CCOCC2)cc1)N1c2ccccc2C=Cc2ccccc21`, the IC50 in series [1] came out at 259 µM; in series [2] it was 193 µM. In the case of `NC(N)=NCCCOc1ccc(C(=O)N2c3ccccc3Oc3ccccc32)cc1`, in series [2], the IC50 worked out at 164 µM. `O=C(c1ccc(OCCCN2CCCC2)cc1)N1c2ccccc2CCc2ccccc21`: the IC50 is 98 µM in series [1] and 110 µM in series [2]. The matching figures for `CN(C)CCCOc1ccc(C(=O)Nc2ccccc2Oc2ccccc2)cc1`: 49 µM and 19 µM. Consider `NC(N)=NCCCOc1ccc(C(=O)Nc2ccccc2Oc2ccc(F)cc2)cc1`, for which the IC50 in series [3] amounted to 34 µM; in series [4], 2 µM; in series [1], 185 µM.

Turning to `COCCOC(=O)C1=C(C)NC(C)=C(C(=O)OC/C=C/c2ccccc2)C1c1cccc([N+](=O)[O-])c1` (configuration not stated) [CILNIDIPINE], the results for the IC50 in series [1] and in series [2] were 26 µM and 24 µM, respectively. Consider `CN(C)CCCOc1ccc(C(=O)N2c3ccccc3C=Cc3ccccc32)cc1`, for which the half-life in series [5] was greater than 60 h. With `O=C(c1ccc(OCCCN2CCCC2)cc1)N1c2ccccc2Oc2ccccc21`, the IC50 in series [2] was determined as 49 µM.

For `CN(C)CCCOc1ccc(C(=O)N2c3ccccc3CCc3ccccc32)cc1`, in series [5], the half-life is greater than 60 h. Turning to `O=C(c1ccc(OCCCN2CCOCC2)cc1)N1c2ccccc2CCc2ccccc21`, the figures for the IC50 in series [1] and in series [2] were 78 µM and 80 µM, respectively.
